These results are taken from ChEMBL document CHEMBL1158219, “Cell-based screen for identification of inhibitors of tubulin polymerization” (J Nat Prod, 1996).

Activity calls are given as the source filed them. The rule behind the calls is not given here. *1 amine or outer side, *2 acyl side, *3 side chain or, on linkers, in order; H or OH if unused. Where a SMILES comes first, the peptide text is derived from it. Bridges are numbered along the chain shown (N, C = ends). Roman numbers before positions name the chains, in order. [ ]: non-standard residue; d: D form. Actinocin(9to1) = Cc1c2oc3c(C)ccc(C(=O)[*:1])c3nc-2c(C(=O)[*:2])c(N)c1=O; NMeV = CN[C@H](C(=O)O)C(C)C; Sar = CNCC(=O)O

The test system of assay [1] is C6. Kind of assay: Inhibition of tubulin polymerization in rat C6 cells at 50 ug/mL to 2.5 mg/mL after 4 hrs. The class given is cell-based.
Assay [2] concerns C6. Description: Cytotoxicity against rat C6 cells at 50 ug/mL to 2.5 mg/mL after 3 days treated 4 hrs before db-cAMP challenge by MTT assay. The assay is classed as functional, cell-based. (In general: Tetrazolium dyes change colour on reduction, which living cells bring about.)
Assay [3] concerns C6. Description: Cytotoxicity against rat C6 cells assessed as cell release at 50 ug/mL to 2.5 mg/mL after 5 hrs by MTT assay in absence of db-cAMP. The assay is classed as functional, cell-based.
In assay [4] the test system is C6. Description: Cytotoxicity against rat C6 cells after 3 days treated 4 hrs before db-cAMP challenge by MTT assay. The class given is functional. Particulars: read-out: LC50 (the source's name).
Assay [5] in a line: Inhibition of tubulin polymerization in rat C6 cells after 4 hrs. The class given is cell-based.

Take `O=NN(CCCl)C(=O)NCCCl`: the outcome in assay [1], in assay [2] and in assay [3] was inactive.

For `O=C1c2c(O)ccc(O)c2C(=O)c2c(NCCNCCO)ccc(NCCNCCO)c21`, the result in assay [1], in assay [2] and in assay [3] was inactive.

Consider `COc1cc([C@@H]2c3cc4c(cc3[C@@H](O[C@@H]3O[C@@H]5CO[C@@H](c6cccs6)O[C@H]5[C@H](O)[C@H]3O)[C@H]3COC(=O)[C@H]23)OCO4)cc(OC)c1O`, for which the outcome in assay [1], in assay [2] and in assay [3] was inactive.

As to `COc1cccc2c1C(=O)c1c(O)c3c(c(O)c1C2=O)C[C@@](O)(C(=O)CO)C[C@@H]3O[C@H]1C[C@H](N)[C@H](O)[C@H](C)O1`, the outcome in assay [1], in assay [2] and in assay [3] was inactive.

Regarding `CN(N=O)C(=O)N[C@@H](C=O)[C@@H](O)[C@H](O)[C@H](O)CO`, the result in assay [1], in assay [2] and in assay [3] was inactive.

Consider `Cc1c2oc3c(C)ccc(C(=O)N[C@@H]4C(=O)N[C@H](C(C)C)C(=O)N5CCC[C@H]5C(=O)N(C)CC(=O)N(C)[C@@H](C(C)C)C(=O)O[C@@H]4C)c3nc-2c(C(=O)N[C@@H]2C(=O)N[C@H](C(C)C)C(=O)N3CCC[C@H]3C(=O)N(C)CC(=O)N(C)[C@@H](C(C)C)C(=O)O[C@@H]2C)c(N)c1=O` (I: T[dV]P[Sar][NMeV] / II: T[dV]P[Sar][NMeV]; ester I:1-I:C, II:1-II:C; linker I:N-II:N via Actinocin(9to1)), for which the outcome in assay [1], in assay [2] and in assay [3] was inactive.

Turning to `CCn1cc(C(=O)O)c(=O)c2ccc(C)nc21`, the outcome in assay [1], in assay [2] and in assay [3] was inactive.

By EC50 is commonly meant the concentration giving half of the maximal effect. A high value points to weaker potency. As to `C=CC[C@@H](CC/C(C)=C/C=C/CC/C=C\[C@@H]1CSC([C@@H]2C[C@@H]2C)=N1)OC` [CURACIN A], the CC50 in assay [4] came to 11 nM. Also, in assay [5], a half-maximal effect (EC50) was put at 510 nM. Besides, in assay [3], the outcome was inactive.

As to `C[C@@H]1C[C@@H]([C@H](O)CC2CC(=O)NC(=O)C2)C(=O)[C@@H](C)C1`, the outcome in assay [1], in assay [2] and in assay [3] was inactive.

Turning to `CC[C@]1(O)C[C@@H]2CN(CCc3c([nH]c4ccccc34)[C@@](C(=O)OC)(c3cc4c(cc3OC)N(C)[C@H]3[C@@](O)(C(=O)OC)[C@H](OC(C)=O)[C@]5(CC)C=CCN6CC[C@]43[C@@H]65)C2)C1` [VINBLASTINE], the CC50 in assay [4] came out at 66 nM. For the same compound, in assay [5], the EC50 came out at 8200 nM. In assay [3], the outcome was inactive.

With `CC(=O)O[C@H]1C(=O)[C@@]2(C)[C@H]([C@H](OC(=O)c3ccccc3)[C@]3(O)C[C@H](OC(=O)[C@H](O)[C@@H](NC(=O)c4ccccc4)c4ccccc4)C(C)=C1C3(C)C)[C@]1(OC(C)=O)CO[C@@H]1C[C@@H]2O` [PACLITAXEL], the CC50 in assay [4] was determined as 23 nM.

`Clc1ccc(C(c2ccccc2Cl)C(Cl)Cl)cc1` (stereo not drawn): the result in assay [1], in assay [2] and in assay [3] was inactive.

`COc1cc2c(c(OC)c1OC)-c1ccc(OC)c(=O)cc1[C@@H](NC(C)=O)CC2` [COLCHICINE]: the CC50 in assay [4] came to 200 nM. The EC50 in assay [5] came to 100 nM. Besides, the result in assay [3] was inactive.

In the case of `CO[C@@H]1[C@@H](OC(N)=O)[C@@H](O)[C@H](Oc2ccc3c(O)c(NC(=O)c4ccc(O)c(CC=C(C)C)c4)c(=O)oc3c2C)OC1(C)C`, the result in assay [1], in assay [2] and in assay [3] was inactive.

On to `N[C@@H](Cc1ccc(N(CCCl)CCCl)cc1)C(=O)O`, for which the result in assay [1], in assay [2] and in assay [3] was inactive.

For `COc1cc([C@@H]2c3cc4c(cc3[C@@H](O[C@@H]3O[C@@H]5CO[C@@H](C)O[C@H]5[C@H](O)[C@H]3O)[C@H]3COC(=O)[C@H]23)OCO4)cc(OC)c1O` [ETOPOSIDE], in assay [4], the CC50 is 120 nM. This compound also came in with an EC50 in assay [5] of 680000 nM. The outcome in assay [3] was inactive.

For the compound `CC[C@]1(O)C[C@H]2CN(CCc3c([nH]c4ccccc34)[C@@](C(=O)OC)(c3cc4c(cc3OC)N(C=O)[C@H]3[C@@](O)(C(=O)OC)[C@H](OC(C)=O)[C@]5(CC)C=CCN6CC[C@]43[C@@H]65)C2)C1` [VINCRISTINE], the CC50 in assay [4] was 320 nM. The compound also came in with an EC50 in assay [5] of 6200 nM. Further, in assay [3], the result was inactive.

On to `COc1cccc2c1C(=O)c1c(O)c3c(c(O)c1C2=O)C[C@@](O)(C(C)=O)C[C@@H]3O[C@H]1C[C@H](N)[C@H](O)[C@H](C)O1`, for which the outcome in assay [1], in assay [2] and in assay [3] was inactive.

For `CO[C@@]12[C@H](COC(N)=O)C3=C(C(=O)C(C)=C(N)C3=O)N1C[C@@H]1N[C@@H]12`, the outcome in assay [1], in assay [2] and in assay [3] was inactive.

As to `C=C1[C@@H](C)[C@H]2[C@H](Cc3ccccc3)NC(=O)[C@]23OC(=O)/C=C/[C@H](O)CCC[C@@H](C)C/C=C/[C@H]3[C@@H]1O`, the outcome in assay [1], in assay [2] and in assay [3] was inactive.
